Measured values: patent US6379882B1, “Method for selecting compounds for treating ischemia-related cellular damage” (Elan Pharmaceuticals, Inc., priority 1998, dated 2002)
Entries after “also recorded” stand apart in the source; their conditions may differ. Read-outs that look alike come from different tables or passages of the source.

Experiments:
[1] = tested on: retinal ganglion cells; details: literature; cited from earlier work
[2] = tested on: retinal ganglion cells; assay type: cell-based, rat
[3] = tested on: rat neocortical tissue slices; details: Evans et al. 1982; Kral et al. 1993; cited from earlier work
[4] = tested on: cortical neuronal cells; details: cited from earlier work
[5] = tested on: NMDA receptor; details: whole cell recordings; Chen et al. 1998; cited from earlier work
[6] = tested on: isolated retinas of chick embryos; details: LDH release and histological assessment; Chen et al. 1998; cited from earlier work
[7] = tested on: retinal ganglion cells; details: Lagreze et al. 1998, cited from earlier work
[8] = co-exposure to 1.0 mM, about 24 hours, Yamamoto and Tang 1998

Row | Compound | prevention of NMDA receptor-mediated death of retinal ganglion cells in vivo [1] | protection of oxygen/glucose-deprived RGCs from apoptotic cell death (in words) [2] | NMDA receptor mediated currents [5] | protective effect on neurons under ischemic or excitotoxic conditions [6] | further results
1 | NC(CCCCCP(=O)(O)O)C(=O)O (stereo not drawn) | prevent NMDA receptor-mediated death of retinal ganglion cells in vivo |  |  |  | 
2 | NC(CCCP(=O)(O)O)C(=O)O (racemic) [AP-5, DL-2-amino-5-phosphonovaleric acid] |  | demonstrated biological activity in protecting oxygen/glucose-deprived RGCs from apoptotic cell death |  |  | protective effect in neocortical tissue slices [3]: protective effect
3 | NC(CCCCCP(=O)(O)O)C(=O)O (racemic) [AP-7] |  | demonstrated biological activity in protecting oxygen/glucose-deprived RGCs from apoptotic cell death |  |  | increase of extracellular LDH and neuronal disintegration by potassium cyanide and NMDA [4]: partially prevented
4 | Cc1ccc(Cl)c(Nc2ccccc2C(=O)O)c1Cl [meclofenamic acid] |  | to a lesser extent; also recorded: Less efficacy | inhibited NMDA receptor mediated currents | protective effect | 
5 | Cc1cccc(Nc2ccccc2C(=O)O)c1C [mefenamic acid] |  | to a lesser extent; also recorded: Less efficacy | inhibited NMDA receptor mediated currents | protective effect | 
6 | COc1ccc2[nH]cc(CCNC(C)=O)c2c1 [melatonin] |  |  |  |  | increase of extracellular LDH and neuronal disintegration by potassium cyanide and NMDA [4, 8]: partially prevented
7 | N=C(NCCC[C@H](N)C(=O)O)N[N+](=O)[O-] [N^G-nitro-L-arginine] |  |  |  |  | increase of extracellular LDH and neuronal disintegration by potassium cyanide and NMDA [4, 8]: partially prevented
8 | O=C(O)c1cc(=O)c2ccccc2[nH]1 [kynurenic acid] | prevent NMDA receptor-mediated death of retinal ganglion cells in vivo |  |  |  | 
9 | O=C(O)c1ccccc1Nc1cccc(C(F)(F)F)c1 [flufenamic acid] |  | demonstrated biological activity in protecting oxygen/glucose-deprived RGCs from apoptotic cell death | inhibited NMDA receptor mediated currents | protective effect | 
10 | CC12CC3CC(C)(C1)CC(N)(C3)C2 [memantine] | prevent NMDA receptor-mediated death of retinal ganglion cells in vivo |  |  |  | prevention of NMDA receptor-mediated death of retinal ganglion cells (in words) [7]: prevent NMDA receptor-mediated death of retinal ganglion cells; increase in the number of surviving retinal ganglion cells ([7]; administered before retinal ischemia): ~30%; increase in the number of surviving retinal ganglion cells ([7]; administered within 30 minutes of retinal ischemia): ~20%
